In data set [1] the test system is human mesothelioma (MM) cells. As to the kind of experiment: LDH release assay of cell lysis, MM cells. Conditions: doses of DOX ranging from 800 nM to 2000 nM; 48 h. On the technique in general: Release of lactate dehydrogenase indicates damage to the cell membrane.
Procedure: Cells were plated and grown to 70-80% confluence at 37° C. in complete medium. Medium was aspirated and replaced with maintenance medium containing 0.5% FBS, and incubated for 24 hrs.
Briefly, cells were treated with APMS and/or DOX alone and in combination for varying amounts of time, and 50 μl of the supernatant was removed (in triplicate) and placed into wells of a 96-well plate. Fifty μl of substrate buffer was added to each well, and the plate was incubated for 30 min at room temperature in the dark. Fifty μl of stop solution was then added, and plates were read at 490 nm.
Another data set has as its system human mesothelioma cells. The class given is cell-based. Here is the method: We have also modified existing HPLC methods (Andersen et al, 1993, 1994; De Bruijn et al, 1999) to compare the amounts of DOX transferred to cellular interiors by DOX-loaded APMS and DOX alone. More DOX is transferred to cells when it is preloaded into APMS than when it is administered alone. Briefly, measurement of cellular DOX concentrations was accomplished by lysis and enzymatic digestion of the cellular contents, along with centrifugation. […] Similar methodology was used to quantify the amount of extracellular DOX, and since the total amount of DOX within the APMS particles prior to its addition to the cell culture was known, the amount of DOX remaining within the particles could be determined (FIG. 7). Intracellular and extracellular amounts of DOX were measured by fluorescence HPLC after digestion and release of DOX from cellular material (FIG. 7A). […]
Preloading APMS with Doxorubicin (DOX). […] The concentration of DOX within the APMS were calculated theoretically and verified via HPLC following hydration overnight in water or methanol at room temperature, as previously described (13). Concentrations of DOX in cells were measured. […] Similar methodology was used to quantify the amount of extracellular DOX, and since the total amount of DOX within the APMS particles prior to its addition to the cell culture was known, the amount of DOX remaining within the particles could be determined.

In data set [2] the test system is phosphorylated histone protein H2AX (γH2AX). The data set is described as follows: Immunocytochemical analysis of γH2AX. The following applies: 80 nM DOX; 8 and 24 h; compared to control. It counts as cell-based, human. Here is the method:
Mechanisms of Cytotoxicity. To explore mechanisms of toxicity of DOX at low concentrations delivered by APMS, levels of phosphorylated histone protein H2AX (γH2AX), a marker of DNA double strand breaks, and Apoptosis Inducing Factor (AIF), a marker of mitochondrial mediated apoptosis, were analyzed.
Immunocytochemical Analysis ofphosphorylated histone protein H2AX (γH2AX). Monolayers of cells were grown on glass coverslips and treated as described above. Cells were then washed in PBS, then fixed in 4% paraformaldehyde and permeabilized in 0.1% Triton X-100. Cells were blocked for 1 h at room temperature in PBS containing 3% bovine serum albumin (BSA), then incubated in a 1:500 dilution of mouse monoclonal anti-phospho-histone H2AX antibody (#05-636, Upstate Cell Signaling, Charlottesville, Va.) in 3% BSA overnight at 4° C. Cells were then washed in PBS and incubated in a 1:300 dilution of goat anti-mouse IgO conjugated to Alexa-647 fluorescent tag (Molecular Probes, Invitrogen) in PBS for 45 min at room temperature in the dark. […] Coverslips were then washed and mounted on glass slides using Aqua Poly/Mount (#18606, Polysciences, Inc., Warrington, Pa.) and analyzed using a Zeiss LSM 510 META confocal scanning laser microscope (Carl Zeiss Microimaging).

Data set [3] relates to MM cells. As to the kind of experiment: MTS cell viability assay. It counts as cell-based, human. The following applies: 80 nM DOX; varying amounts of time. Here is the method:
Cell viability was measured in treated cells by using the calorimetric MTS Assay, CellTiter 96 AQueous One Solution Cell Proliferation Assay (Promega) as per the manufacturer's recommendations. Briefly, 5×10^3 cells were plated in a 96-well microtiter plate and allowed to recover overnight. Medium was aspirated, and cells were maintained in a low serum-containing medium for 24 h prior to treatment for varying amounts of time with APMS and/or DOX. MTS reagent was added, plates were incubated at 37° C. for 2-3 h and the absorbance of the wells was read at 492 nm as a measure of cell viability.
On the technique in general: Tetrazolium assays rely on reduction of a dye to a coloured formazan, in cell work by metabolically active cells.

The subject of the next data set is NF-κB. The data set is described as follows: NF-κB electrophoretic mobility shift assay. It counts as cell-based, human. Here is the method:
NF-κB Electrophoretic Mobility Shift Assay. Electrophoretic gel mobility shift assays were used to assess the binding of NF-κB to DNA. Nuclear extracts of MM cells treated with 80 nM DOX, 100 μM DOX, APMS-TEG, APMS-TEG preloaded with 80 nM DOX (APMS-DOX80) for 4 h, were prepared as described previously (14). Samples were treated with or without TNF-α, 1 h prior to harvesting nuclear protein. The amount of protein in each sample was determined with the Bio-Rad protein assay (Bio-Rad). A ^32P-end-labeled double stranded oligodeoxynucleotide representing the specific element that contains an NF-κB consensus sequence (E3292, Promega, Madison, Wis.) was incubated with 3 μg of extract as described previously (15). The components of the NF-κB complex were identified by antibodies specific for p50 and p65 proteins (Santa Cruz Biotechnology, Inc., Santa Cruz, Calif.). Autoradiograms were developed and quantitated with a Bio-Rad phosphorimager.
In general terms: A gel shift assay detects complexes by their altered migration in electrophoresis.

The next data set concerns AKT. The data set is described as follows: Western blot for phosphorylated AKT. The class given is cell-based, human. Conditions: 80 nM DOX; each time point. Here is the method: (§1) Western Blot Analyses for Phosphorylated ERK's1/2 and AKT To determine whether DOX at low concentrations delivered by APMS modified signaling pathways associated with cell survival, nearly confluent MM cells were washed 3× with cold PBS, scraped from culture plates, and collected by centrifugation at 14,000 rpm for 1 min. The pellet was resuspended in lysis buffer [20 mM Tris (pH 7.4), 1% Triton X-100, 10% glycerol, 137 mM NaCl, 2 mM EDTA, 25 mM β-glycerophosphate, 1 mM Na3VO4, 2 mM pyrophosphate, 1 mM PMSF, 10 μg/ml leupeptin, 1 mM DTT, 10 mM NaF, 1% aprotinin], incubated at 4° C. for 15 min, and centrifuged at 14,000 rpm for 20 min. Protein concentrations were determined using a Bio-Rad RC-DC Assay (Bio-Rad Laboratories, Hercules, Calif.). […] of protein in sample buffer [62.5 mM Tris-HCl (pH 6.8), 2% sodium dodecyl sulfate (SDS), 10% glycerol, 50 mM dithiothreitol, 0.1% w/v bromophenol blue] was resolved by electrophoresis in 10% SDS-polyacrylamide gels, and transferred to nitrocellulose using a Mini Trans-Blot Cell apparatus (Bio-Rad Laboratories). […] Blots were washed 3× in TBS/0.1% Tween-20, and protein bands were visualized with the ECL Western Blotting Detection Reagents (Amersham Biosciences, GE Healthecare UK Limited, Buckinghamshire, UK) and quantitated using a Bio-Rad phosphorimager.

In a further data set the test system is ERK1/2. The data set is described as follows: Western blot for phosphorylated ERK1/2. The following applies: 80 nM DOX; 4, 8, 24 and 48 h. The class given is cell-based, human. Here is the method: as §1
The subject of data set [4] is MM cells. The data set is described as follows: Flow cytometry of mechanisms of APMS uptake. It counts as cell-based, human. Conditions: 30 min pretreatment; chlorpromazine 5 μg/ml, cytochalasin D 1 μM, filipin 6.25 μg/ml; vs control at 37° C. Here is the method: Cells were exposed for 30 min to chemical inhibitors of specific uptake mechanisms: chlorpromazine ([…]), cytochalasin D (1 μM), or filipin (6.25 μg/ml), i.e. at effective concentrations as reported in the literature (25-29), or incubated at 4° C. for 30 min prior to addition of APMS for various amounts of time. Hoechst 33342 nucleic acid dye (16.2 μM) (Molecular Probes, Invitrogen) was added 15 min prior to harvesting cells. Cells were washed once in PBS and removed from dishes using Accutase cell detachment solution (Innovative Cell Technologies, Inc. San Diego, Calif.), pelleted by centrifugation, resuspended in calcium and magnesium-free phosphate buffered saline (PBS), and kept on ice until analyzed. Samples were analyzed using a BD LSRII flow cytometer (BD Biosciences, San Jose, Calif.) equipped with a Sapphire 488 (Coherent, Santa Clara, Calif.) laser which emits at 488 nm to excite the Alexa 488 dye, and a solid state Xcite (Lightwave) which emits at 355 nm to excite the Hoechst 333342 nucleic acid dye (Molecular Probes, Invitrogen). Data analysis was performed at the time of acquisition using Flow Jo (Tree Star, Inc., Ashland, Oreg.). This software package is an experiment-based flow cytometry data analysis package designed for multi-color research.
To verify that the gating used in determining cell populations was accurate, FACS analysis was performed on different populations. Populations of cells/APMS were selected based on their locations on histograms, and were sorted, collected and mounted on glass slides using cytocentriftigation. […] The fluorescent signals from Alexa 488 were detected using 530/30 BP and 505 LP filters. Hoechst staining was detected using 440/40 BP filter. Identification and quantification of populations on cytospins were performed manually with phase contrast and fluorescence microscopy using an Olympus BX50 microscope (Olympus America, Lake Success, N.Y.).

Consider `COc1cccc2c1C(=O)c1c(O)c3c(c(O)c1C2=O)C[C@@](O)(C(=O)CO)C[C@@H]3O[C@H]1C[C@H](N)[C@H](O)[C@H](C)O1` [DOX, doxorubicin], for which the “cell death compared to total LDH released from lysed cells” value in data set [1] is listed as 10-13%. The “amount of DOX transferred to the cell relative to DOX preloaded into APMS” value with human mesothelioma cells was “Approximately half as much”. In addition, in the data set with human mesothelioma cells (human), the “maximum amount of DOX transferred to the cellular interior, of the initial dose” value is “approximately 25%”. In addition, in data set [2], the “levels of γH2AX” value is “increased”. Further, the “cell viability (MTS)” value in the data set with MM cells [3] was “no significant difference”. Also, the “NF-κB-DNA binding after adding TNF-α 1 hr prior to harvesting” value with NF-κB (80 nM DOX) is given as “further increased the DNA binding”. In addition, the “NF-κB-DNA binding after adding TNF-α for 1 h prior to harvesting” value in the data set with NF-κB (100 μM DOX) was “could not be reversed”. The NF-κB-DNA binding activity result in the data set on NF-κB (100 μM DOX (a lethal concentration), 4 h) is reported as “ablated”; in the data set on NF-κB (4 h exposure, 80 nM DOX, compared to controls), “increased”. For the same compound, the “phospho-AKT: total AKT ratios” value in the data set on AKT is recorded as “did not significantly affect”. In addition, the “phospho-ERK1/2: total ERK1/2 ratio” value with ERK1/2 is on record as “do not significantly affect”.

Consider `C=C1[C@@H](C)[C@H]2[C@H](Cc3ccccc3)NC(=O)[C@]23[C@H](OC(C)=O)/C=C/[C@@](C)(O)C(=O)[C@@H](C)C/C=C/[C@H]3[C@@H]1O` [cytochalasin D], for which the “effect of inhibitor pretreatment on APMS-TEG particle uptake” value (“effect of inhibitor pretreatment” for short) with MM cells [4] is on record as “decreased numbers of APMS-containing cells”.

Consider `CN(C)CCCN1c2ccccc2Sc2ccc(Cl)cc21` [chlorpromazine], for which the “effect of inhibitor pretreatment” value in the data set on MM cells [4] was “no inhibition”.

In the case of `CCCCC[C@@H](O)[C@H]1C(=O)O[C@H](C)[C@@H](O)/C=C/C=C/C=C/C=C/C=C(\C)[C@@H](O)C[C@H](O)C[C@H](O)C[C@H](O)C[C@H](O)C[C@H](O)C[C@@H]1O` [filipin], the “effect of inhibitor pretreatment” value with MM cells [4] is recorded as “no inhibition”.

As for TNF-α, the “NF-κB DNA binding” value in the data set with NF-κB (1 hr incubation) is given as “dramatically increased DNA binding”.

The values are drawn from patent US20070281036A1, “System and method of delivering a desired material to a cell” (University of Vermont and State Agricultural College, priority 2005, published 2007).
